{
  "source": "paper PMC12396409",
  "about": "“Screening and hit evaluation of a microbial metabolite library against the pathogenic Plasmodium falciparum and Toxoplasma gondii parasites” (International Journal for Parasitology: Drugs and Drug …, 2025)",
  "key": {"[1]": {"test_system": "P. falciparum 3D7 parasites", "assay": "P. falciparum growth inhibition assay, 1-cycle (72 h treatment), SYBR DNA staining (library screen at 2 μg/mL and dose-response)", "format": "cell-based, Plasmodium falciparum", "conditions": "72 h; for activity at 2 µg/mL: Plasmodium falciparum"}, "[2]": {"test_system": "P. falciparum 3D7 parasites", "assay": "P. falciparum growth inhibition assay, 2-cycle (120 h treatment), delayed-death screen and dose-response", "format": "cell-based, Plasmodium falciparum", "conditions": "for activity at 2 µg/mL: Plasmodium falciparum"}, "[3]": {"test_system": "T. gondii RH strain (RH-Tub-eYFP) tachyzoites", "assay": "microbe, parasite or virus in culture", "format": "cell-based, Toxoplasma gondii", "conditions": "72 h; for percent parasite growth at 2 µg/mL: Toxoplasma gondii"}, "[4]": {"conditions": "library screen at 2 μg/mL, % growth, replicate 1"}, "[5]": {"conditions": "library screen at 2 μg/mL, % growth, replicate 2"}, "[6]": {"conditions": "library screen at 2 μg/mL, 120 h, % growth, replicate 1"}, "[7]": {"conditions": "library screen at 2 μg/mL, 120 h, % growth, replicate 2"}, "[8]": {"conditions": "P. falciparum, screen at 2 μg/mL, replicate 1"}, "[9]": {"conditions": "P. falciparum, screen at 2 μg/mL, replicate 2"}, "[10]": {"conditions": "P. falciparum, 120 h, screen at 2 μg/mL, replicate 1"}, "[11]": {"conditions": "P. falciparum, 120 h, screen at 2 μg/mL, replicate 2"}, "[12]": {"conditions": "T. gondii, screen at 2 μg/mL, replicate 1"}, "[13]": {"conditions": "T. gondii, screen at 2 μg/mL, replicate 2"}},
  "note": "Where two headings read alike, the source gives them in different places. Where a SMILES comes first, the peptide text is derived from it. [ ]: non-standard residue; d: D form. d(aIle) = CC[C@H](C)[C@@H](N)C(=O)O; aIle = CC[C@@H](C)[C@H](N)C(=O)O; Hica(2S) = CC(C)C[C@H](O)C(=O)O; NMeL = CN[C@@H](CC(C)C)C(=O)O; Hiv = CC(C)[C@H](O)C(=O)O",
  "data": [
    {"smiles": "C=C1NC(=O)c2nc(oc2C)C(=C)NC(=O)[C@H](C(C)(C)O)NC(=O)C(=C)NC(=O)c2nc(oc2C)/C(=C/C)NC(=O)[C@H]([C@@H](C)O)NC(=O)c2csc(n2)-c2ccc(C(N)=O)nc2-c2coc(n2)C(=C)NC1=O", "note": "[Berninamycin D]", "values": [
      {"measurement": "Pf_72h_%Growth_Rep1", "setting": "[1]; [4]", "value": 102.21, "unit": "%"},
      {"measurement": "Pf_72h_%Growth_Rep2", "setting": "[1]; [5]", "value": 89.93, "unit": "%"},
      {"measurement": "Pf_120h_%Growth_Rep1", "setting": "[2]; [6]", "value": 147.66, "unit": "%"},
      {"measurement": "Pf_120h_%Growth_Rep2", "setting": "[2]; [7]", "value": 98.89, "unit": "%"},
      {"measurement": "Tg_72h_%Growth_Rep1", "setting": "[3]; [4]", "value": 81.74, "unit": "%"},
      {"measurement": "Tg_72h_%Growth_Rep2", "setting": "[3]; [5]", "value": 94.54, "unit": "%"}
    ]},
    {"smiles": "CO[C@H]1[C@H](O)C[C@@H](O[C@@H]2C[C@H](Oc3cc4cc5c(c(O)c4c(O)c3C)C(=O)[C@@H](O[C@H]3C[C@H](O[C@H]4C[C@H](O[C@H]6C[C@@](C)(O)[C@@H](OC(=O)C(C)C)[C@H](C)O6)[C@H](O)[C@@H](C)O4)[C@H](O)[C@@H](C)O3)[C@H]([C@H](OC)C(=O)[C@@H](O)[C@@H](C)O)C5)O[C@H](C)[C@H]2OC(C)=O)O[C@@H]1C", "note": "[Chromomycin A2]", "values": [
      {"measurement": "activity at 2 µg/mL", "setting": "[1]; 3D7, 72 h, P. falciparum, screen at 2 μg/mL, replicate 1, read-out: Pf_72h_%Growth_Rep1", "value": 6.05, "unit": "%"},
      {"measurement": "activity at 2 µg/mL", "setting": "[1]; 3D7, 72 h, P. falciparum, screen at 2 μg/mL, replicate 2, read-out: Pf_72h_%Growth_Rep2", "value": 1.3, "unit": "%"},
      {"measurement": "activity at 2 µg/mL", "setting": "[2]; 3D7, 120 h, P. falciparum, 120 h, screen at 2 μg/mL, replicate 1, read-out: Pf_120h_%Growth_Rep1", "value": 3.01, "unit": "%"},
      {"measurement": "activity at 2 µg/mL", "setting": "[2]; 3D7, 120 h, P. falciparum, 120 h, screen at 2 μg/mL, replicate 2, read-out: Pf_120h_%Growth_Rep2", "value": 9.04, "unit": "%"},
      {"measurement": "percent parasite growth at 2 µg/mL", "setting": "[3]; T. gondii, screen at 2 μg/mL, replicate 1, read-out: Tg_72h_%Growth_Rep1", "value": 2.51, "unit": "%"},
      {"measurement": "percent parasite growth at 2 µg/mL", "setting": "[3]; T. gondii, screen at 2 μg/mL, replicate 2, read-out: Tg_72h_%Growth_Rep2", "value": 1.82, "unit": "%"}
    ]},
    {"smiles": "CO[C@@H]1[C@@H](OC(N)=O)[C@@H](O)[C@H](Oc2ccc3c(O)c(NC(=O)c4ccc(O)c(CCC(C)C)c4)c(=O)oc3c2C)OC1(C)C", "note": "[Dihydronovobiocin]", "values": [
      {"measurement": "Pf_72h_%Growth_Rep1", "setting": "[1]; [4]", "value": 88.16, "unit": "%"},
      {"measurement": "Pf_72h_%Growth_Rep2", "setting": "[1]; [5]", "value": 85.96, "unit": "%"},
      {"measurement": "Pf_120h_%Growth_Rep1", "setting": "[2]; [6]", "value": 93.97, "unit": "%"},
      {"measurement": "Pf_120h_%Growth_Rep2", "setting": "[2]; [7]", "value": 91.59, "unit": "%"},
      {"measurement": "Tg_72h_%Growth_Rep1", "setting": "[3]; [4]", "value": 162.91, "unit": "%"},
      {"measurement": "Tg_72h_%Growth_Rep2", "setting": "[3]; [5]", "value": 101.29, "unit": "%"}
    ]},
    {"smiles": "O=C1c2c(O)cc(O)cc2OC1(O)Cc1ccc(O)c(O)c1", "note": "(stereo not drawn) [Alphitonin]", "values": [
      {"measurement": "Pf_72h_%Growth_Rep1", "setting": "[1]; [4]", "value": 88.31, "unit": "%"},
      {"measurement": "Pf_72h_%Growth_Rep2", "setting": "[1]; [5]", "value": 93.84, "unit": "%"},
      {"measurement": "Pf_120h_%Growth_Rep1", "setting": "[2]", "value": 96.34, "unit": "%"},
      {"measurement": "Pf_120h_%Growth_Rep2", "setting": "[2]; [7]", "value": 94.83, "unit": "%"},
      {"measurement": "Tg_72h_%Growth_Rep1", "setting": "[3]; [4]", "value": 106.55, "unit": "%"},
      {"measurement": "Tg_72h_%Growth_Rep2", "setting": "[3]; [5]", "value": 96.34, "unit": "%"}
    ]},
    {"smiles": "O=C1N[C@@H](Cc2ccccc2)C(=O)N2CCC[C@@H]12", "note": "[Cyclo(L-Phe-L-Pro)]", "values": [
      {"measurement": "Pf_72h_%Growth_Rep1", "setting": "[1]; [8]", "value": 92.82, "unit": "%"},
      {"measurement": "Pf_72h_%Growth_Rep2", "setting": "[1]; [9]", "value": 90.35, "unit": "%"},
      {"measurement": "Pf_120h_%Growth_Rep1", "setting": "[2]; [10]", "value": 82.75, "unit": "%"},
      {"measurement": "Pf_120h_%Growth_Rep2", "setting": "[2]; [11]", "value": 99.85, "unit": "%"},
      {"measurement": "Tg_72h_%Growth_Rep1", "setting": "[3]; [12]", "value": 128.14, "unit": "%"},
      {"measurement": "Tg_72h_%Growth_Rep2", "setting": "[3]; [13]", "value": 102.31, "unit": "%"}
    ]},
    {"smiles": "CC[C@@H](C)[C@@H]1NC(=O)[C@@H](CC(C)C)NC(=O)[C@H](CC(C)C)NC(=O)[C@H](Cc2c[nH]c3ccccc23)NC(=O)CNC(=O)[C@H](CC(N)=O)NC1=O", "note": "[Desotamide] (cyclo(GWL[dL][aIle]N))", "values": [
      {"measurement": "activity at 2 µg/mL", "setting": "[1]; 3D7, library screen at 2 μg/mL, % growth, replicate 1, read-out: Pf_72h_%Growth_Rep1", "value": 67.3, "unit": "%"},
      {"measurement": "activity at 2 µg/mL", "setting": "[1]; 3D7, library screen at 2 μg/mL, % growth, replicate 2, read-out: Pf_72h_%Growth_Rep2", "value": 64.4, "unit": "%"},
      {"measurement": "activity at 2 µg/mL", "setting": "[2]; 3D7, library screen at 2 μg/mL, 120 h, % growth, replicate 1, read-out: Pf_120h_%Growth_Rep1", "value": 36, "unit": "%"},
      {"measurement": "activity at 2 µg/mL", "setting": "[2]; 3D7, library screen at 2 μg/mL, 120 h, % growth, replicate 2, read-out: Pf_120h_%Growth_Rep2", "value": 50.7, "unit": "%"},
      {"measurement": "percent parasite growth at 2 µg/mL", "setting": "[3]; library screen at 2 μg/mL, % growth, replicate 1, read-out: Tg_72h_%Growth_Rep1", "value": 120, "unit": "%"},
      {"measurement": "percent parasite growth at 2 µg/mL", "setting": "[3]; library screen at 2 μg/mL, % growth, replicate 2, read-out: Tg_72h_%Growth_Rep2", "value": 93, "unit": "%"}
    ]},
    {"smiles": "CCC(=O)[C@@H](C)[C@@H](O)[C@H](C)C[C@@H](C)[C@H]1OC(=O)C[C@@]2(O)CC=C(C)[C@H](O2)/C(C)=C/CCC[C@@H](O[C@H]2C[C@@H](OC(N)=O)[C@H](O)[C@@H](C)O2)/C=C/[C@H](C)C[C@H]1C", "note": "[Venturicidin A]", "values": [
      {"measurement": "Pf_72h_%Growth_Rep1", "setting": "[1]; [8]", "value": 8.64, "unit": "%"},
      {"measurement": "Pf_72h_%Growth_Rep2", "setting": "[1]; [9]", "value": 1.38, "unit": "%"},
      {"measurement": "Pf_120h_%Growth_Rep1", "setting": "[2]; [10]", "value": 19.97, "unit": "%"},
      {"measurement": "Pf_120h_%Growth_Rep2", "setting": "[2]; [11]", "value": -12.87, "unit": "%"},
      {"measurement": "Tg_72h_%Growth_Rep1", "setting": "[3]; [12]", "value": -1.24, "unit": "%"},
      {"measurement": "Tg_72h_%Growth_Rep2", "setting": "[3]; [13]", "value": 0.71, "unit": "%"}
    ]},
    {"smiles": "CC[C@H](C)[C@H]1NC(=O)[C@H](C(C)C)OC(=O)[C@H](CC(C)C)N(C)C(=O)[C@H](C(C)C)NC(=O)[C@H](CC(C)C)OC(=O)[C@@H](CC(C)C)NC1=O", "note": "[Sporidesmolide V] (cyclo([Hica(2S)]V[NMeL][Hiv][d(aIle)][dL]))", "values": [
      {"measurement": "Pf_72h_%Growth_Rep1", "setting": "[1]; P. falciparum, parasite screen 2 μg/mL, % growth, replicate 1", "value": 8.13, "unit": "%"},
      {"measurement": "Pf_72h_%Growth_Rep2", "setting": "[1]; P. falciparum, parasite screen 2 μg/mL, % growth, replicate 2", "value": 0.54, "unit": "%"},
      {"measurement": "Pf_120h_%Growth_Rep1", "setting": "[2]; P. falciparum, 120 h, parasite screen 2 μg/mL, % growth, replicate 1", "value": 158.27, "unit": "%"},
      {"measurement": "Pf_120h_%Growth_Rep2", "setting": "[2]; P. falciparum, 120 h, parasite screen 2 μg/mL, % growth, replicate 2", "value": 82.66, "unit": "%"},
      {"measurement": "Tg_72h_%Growth_Rep1", "setting": "[3]; T. gondii, parasite screen 2 μg/mL, % growth, replicate 1", "value": 84.27, "unit": "%"},
      {"measurement": "Tg_72h_%Growth_Rep2", "setting": "[3]; T. gondii, parasite screen 2 μg/mL, % growth, replicate 2", "value": 95.04, "unit": "%"}
    ]}
  ]
}
